From patent US10442807B2, “Aryl substituted bicyclic compounds as herbicides” (FMC Corporation, priority 2015, dated 2019)

Legend:
Format in all cases: in vivo
rice (Oryza sativa) = assay: Test B flooded paddy test, visual plant response rating; conditions: 250 g ai/ha; applied to paddy water at 2-leaf stage; rated after 13 to 15 days; scale 0 to 100, 0 is no effect, 100 is complete control
Outline: (§1)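 Visual injury score 0 to 100 against controls (0 = no effect, 100 = complete control), taken 13–15 days after treatment. Test compound went into the paddy water of pots flooded 3 cm over the soil surface, water kept at that depth in greenhouse.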

[1] = test system: barnyardgrass (Echinochloa crus-galli); assay: as above; conditions: 250 g ai/ha; applied to paddy water at 2-leaf stage; rated after 13 to 15 days; scale 0 to 100, 0 is no effect, 100 is complete control
Outline: as §1

[2] = test system: sedge, umbrella (small-flower umbrella sedge, Cyperus difformis); assay: as above; conditions: 250 g ai/ha; applied to paddy water at 2-leaf stage; rated after 13 to 15 days; scale 0 to 100, 0 is no effect, 100 is complete control
Outline: as §1

[3] = test system: ducksalad (Heteranthera limosa); assay: as above; conditions: 250 g ai/ha; applied to paddy water at 2-leaf stage; rated after 13 to 15 days; scale 0 to 100, 0 is no effect, 100 is complete control
Outline: as §1

corn (Zea mays) = assay: Test A postemergence application, visual injury rating; conditions: approx. 10 d, 0 = no effect, 100 = complete control
Outline: (§2)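 Seeds sown in loam/sand soil got a directed soil spray before emergence, or plants at one- to two-leaf stage (2-10 cm) were sprayed postemergence; chemical in non-phytotoxic solvent with surfactant. Greenhouse approx. 10 d, then visual injury vs untreated controls on 0 (no effect) to 100 (complete control) scale.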

[4] = test system: galium (catchweed bedstraw, Galium aparine); assay: as above; conditions: approx. 10 d, 0 = no effect, 100 = complete control
Outline: as §2

[5] = test system: wheat (Triticum aestivum); assay: as above; conditions: approx. 10 d, 0 = no effect, 100 = complete control
Outline: as §2

[6] = test system: barnyardgrass (Echinochloa crus-galli); assay: as above; conditions: approx. 10 d, 0 = no effect, 100 = complete control
Outline: as §2

[7] = test system: ragweed (common ragweed, Ambrosia elation); assay: as above; conditions: approx. 10 d, 0 = no effect, 100 = complete control
Outline: as §2

kochia (Kochia scoparia) [8] = assay: as above; conditions: approx. 10 d, 0 = no effect, 100 = complete control
Outline: as §2

[9] = test system: blackgrass (Alopecurus myosuroides); assay: as above; conditions: approx. 10 d, 0 = no effect, 100 = complete control
Outline: as §2

[10] = test system: foxtail, giant (giant foxtail, Setaria faberii); assay: as above; conditions: approx. 10 d, 0 = no effect, 100 = complete control
Outline: as §2

[11] = test system: ryegrass, Italian (Italian ryegrass, Lolium multiflorum); assay: as above; conditions: approx. 10 d, 0 = no effect, 100 = complete control
Outline: as §2

[12] = test system: pigweed (Amaranthus retroflexus); assay: as above; conditions: approx. 10 d, 0 = no effect, 100 = complete control
Outline: as §2

[13] = test system: barnyardgrass (Echinochloa crus-galli); assay: Test A preemergence, directed soil spray, visual injury rating; conditions: approx. 10 d, 0 = no effect, 100 = complete control
Outline: as §2

[14] = test system: ragweed (common ragweed, Ambrosia elation); assay: as above; conditions: approx. 10 d, 0 = no effect, 100 = complete control
Outline: as §2

kochia (Kochia scoparia) [15] = assay: as above; conditions: approx. 10 d, 0 = no effect, 100 = complete control
Outline: as §2

[16] = test system: foxtail, giant (giant foxtail, Setaria faberii); assay: as above; conditions: approx. 10 d, 0 = no effect, 100 = complete control
Outline: as §2

[17] = test system: ryegrass, Italian (Italian ryegrass, Lolium multiflorum); assay: as above; conditions: approx. 10 d, 0 = no effect, 100 = complete control
Outline: as §2

[18] = test system: pigweed (Amaranthus retroflexus); assay: as above; conditions: approx. 10 d, 0 = no effect, 100 = complete control
Outline: as §2

SMILES | Plant response rating, Flood, Rice (rice (Oryza sativa)) | Plant response rating, Flood, Barnyardgrass [1] | Plant response rating, Flood, Sedge, Umbrella [2] | Plant response rating, Flood, Ducksalad [3] | Corn plant response rating (0 to 100 scale) (corn (Zea mays); 125 g ai/ha) | Corn plant response rating (0 to 100 scale) (corn (Zea mays); 500 g ai/ha) | Galium plant response rating (0 to 100 scale) ([4]; 125 g ai/ha) | Galium plant response rating (0 to 100 scale) ([4]; 500 g ai/ha) | Wheat plant response rating (0 to 100 scale) ([5]; 125 g ai/ha) | Wheat plant response rating (0 to 100 scale) ([5]; 500 g ai/ha) | Barnyardgrass plant response rating (0 to 100 scale) ([6]; 125 g ai/ha) | Barnyardgrass plant response rating (0 to 100 scale) ([6]; 500 g ai/ha) | Ragweed plant response rating (0 to 100 scale) ([7]; 125 g ai/ha) | Ragweed plant response rating (0 to 100 scale) ([7]; 500 g ai/ha) | Kochia plant response rating (0 to 100 scale) (kochia (Kochia scoparia) [8]; 125 g ai/ha) | Kochia plant response rating (0 to 100 scale) (kochia (Kochia scoparia) [8]; 500 g ai/ha) | Blackgrass plant response rating (0 to 100 scale) ([9]; 125 g ai/ha) | Blackgrass plant response rating (0 to 100 scale) ([9]; 500 g ai/ha) | Foxtail, Giant plant response rating (0 to 100 scale) ([10]; 125 g ai/ha) | Foxtail, Giant plant response rating (0 to 100 scale) ([10]; 500 g ai/ha) | further results
Cc1ccc(C2Cn3c(C)nnc3C2C(=O)Nc2ccccc2F)cc1 (stereo not drawn) [Compound 27] | 0 | 0 | 0 | 70 | 0 | 0 | 0 | 40 | 0 | 0 | 40 | 90 | 0 | 0 | 0 | 0 | 0 | 20 | 30 | 90 | Ryegrass, Italian plant response rating (0 to 100 scale) ([11]; 125 g ai/ha): 0; Ryegrass, Italian plant response rating (0 to 100 scale) ([11]; 500 g ai/ha): 30; Pigweed plant response rating (0 to 100 scale) ([12]; 125 g ai/ha): 0; Pigweed plant response rating (0 to 100 scale) ([12]; 500 g ai/ha): 0; Barnyardgrass plant response rating (0 to 100 scale) ([13]; 125 g ai/ha): 0; Barnyardgrass plant response rating (0 to 100 scale) ([13]; 500 g ai/ha): 90; Ragweed plant response rating (0 to 100 scale) ([14]; 125 g ai/ha): 0; Ragweed plant response rating (0 to 100 scale) ([14]; 500 g ai/ha): 0; Kochia plant response rating (0 to 100 scale) (kochia (Kochia scoparia) [15]; 125 g ai/ha): 0; Kochia plant response rating (0 to 100 scale) (kochia (Kochia scoparia) [15]; 500 g ai/ha): 0; Foxtail, Giant plant response rating (0 to 100 scale) ([16]; 125 g ai/ha): 80; Foxtail, Giant plant response rating (0 to 100 scale) ([16]; 500 g ai/ha): 90; Ryegrass, Italian plant response rating (0 to 100 scale) ([17]; 125 g ai/ha): 20; Ryegrass, Italian plant response rating (0 to 100 scale) ([17]; 500 g ai/ha): 20; Pigweed plant response rating (0 to 100 scale) ([18]; 125 g ai/ha): 0; Pigweed plant response rating (0 to 100 scale) ([18]; 500 g ai/ha): 0
Cc1nnc2n1CC(c1ccc(Cl)cc1)C2C(=O)Nc1cccc(F)c1F (stereo not drawn) [Compound 5] | 0 | 40 | 0 | 20 | 20 | 30 | 40 | 70 | 0 | 20 | 20 | 80 | 0 | 20 | 0 | 30 | 0 | 20 | 30 | 80 | Ryegrass, Italian plant response rating (0 to 100 scale) ([11]; 125 g ai/ha): 0; Ryegrass, Italian plant response rating (0 to 100 scale) ([11]; 500 g ai/ha): 20; Pigweed plant response rating (0 to 100 scale) ([12]; 125 g ai/ha): 0; Pigweed plant response rating (0 to 100 scale) ([12]; 500 g ai/ha): 20; Barnyardgrass plant response rating (0 to 100 scale) ([13]; 125 g ai/ha): 30; Barnyardgrass plant response rating (0 to 100 scale) ([13]; 500 g ai/ha): 80; Ragweed plant response rating (0 to 100 scale) ([14]; 125 g ai/ha): 0; Ragweed plant response rating (0 to 100 scale) ([14]; 500 g ai/ha): 40; Kochia plant response rating (0 to 100 scale) (kochia (Kochia scoparia) [15]; 125 g ai/ha): 0; Kochia plant response rating (0 to 100 scale) (kochia (Kochia scoparia) [15]; 500 g ai/ha): 50; Foxtail, Giant plant response rating (0 to 100 scale) ([16]; 125 g ai/ha): 50; Foxtail, Giant plant response rating (0 to 100 scale) ([16]; 500 g ai/ha): 90; Ryegrass, Italian plant response rating (0 to 100 scale) ([17]; 125 g ai/ha): 20; Ryegrass, Italian plant response rating (0 to 100 scale) ([17]; 500 g ai/ha): 30; Pigweed plant response rating (0 to 100 scale) ([18]; 125 g ai/ha): 0; Pigweed plant response rating (0 to 100 scale) ([18]; 500 g ai/ha): 0
O=C(Nc1cccc(F)c1F)C1c2nncn2CC1c1ccc(C(F)(F)F)cc1 (stereo not drawn) [Compound 12] | 0 | 0 | 0 | 75 | 0 | 60 | 30 | 70 | 0 | 40 | 30 | 90 | 0 | 50 | 20 | 60 | 0 | 60 | 30 | 90 | Ryegrass, Italian plant response rating (0 to 100 scale) ([11]; 125 g ai/ha): 0; Ryegrass, Italian plant response rating (0 to 100 scale) ([11]; 500 g ai/ha): 60; Pigweed plant response rating (0 to 100 scale) ([12]; 125 g ai/ha): 0; Pigweed plant response rating (0 to 100 scale) ([12]; 500 g ai/ha): 70; Barnyardgrass plant response rating (0 to 100 scale) ([13]; 125 g ai/ha): 20; Barnyardgrass plant response rating (0 to 100 scale) ([13]; 500 g ai/ha): 80; Ragweed plant response rating (0 to 100 scale) ([14]; 125 g ai/ha): 0; Ragweed plant response rating (0 to 100 scale) ([14]; 500 g ai/ha): 50; Kochia plant response rating (0 to 100 scale) (kochia (Kochia scoparia) [15]; 125 g ai/ha): 30; Kochia plant response rating (0 to 100 scale) (kochia (Kochia scoparia) [15]; 500 g ai/ha): 80; Foxtail, Giant plant response rating (0 to 100 scale) ([16]; 125 g ai/ha): 90; Foxtail, Giant plant response rating (0 to 100 scale) ([16]; 500 g ai/ha): 90; Ryegrass, Italian plant response rating (0 to 100 scale) ([17]; 125 g ai/ha): 40; Ryegrass, Italian plant response rating (0 to 100 scale) ([17]; 500 g ai/ha): 60; Pigweed plant response rating (0 to 100 scale) ([18]; 125 g ai/ha): 30; Pigweed plant response rating (0 to 100 scale) ([18]; 500 g ai/ha): 80
Cc1nnc2n1CC(c1ccc(C(F)(F)F)cc1)C2C(=O)Nc1ccccc1F (stereo not drawn) [Compound 24, N-(2-fluorophenyl)-6,7-dihydro-3-methyl-6-[4-(trifluoromethyl)phenyl]-5H-pyrrolo[2,1-c]-1,2,4-triazole-7-carboxamide] | 0 | 0 | 0 | 0 | 0 | 40 | 0 | 60 | 0 | 30 | 30 | 80 | 0 | 0 | 0 | 0 | 0 | 50 | 40 | 80 | Ryegrass, Italian plant response rating (0 to 100 scale) ([11]; 125 g ai/ha): 0; Ryegrass, Italian plant response rating (0 to 100 scale) ([11]; 500 g ai/ha): 20; Pigweed plant response rating (0 to 100 scale) ([12]; 125 g ai/ha): 0; Pigweed plant response rating (0 to 100 scale) ([12]; 500 g ai/ha): 20; Barnyardgrass plant response rating (0 to 100 scale) ([13]; 125 g ai/ha): 0; Barnyardgrass plant response rating (0 to 100 scale) ([13]; 500 g ai/ha): 40; Ragweed plant response rating (0 to 100 scale) ([14]; 125 g ai/ha): 0; Ragweed plant response rating (0 to 100 scale) ([14]; 500 g ai/ha): 30; Kochia plant response rating (0 to 100 scale) (kochia (Kochia scoparia) [15]; 125 g ai/ha): 0; Kochia plant response rating (0 to 100 scale) (kochia (Kochia scoparia) [15]; 500 g ai/ha): 60; Foxtail, Giant plant response rating (0 to 100 scale) ([16]; 125 g ai/ha): 30; Foxtail, Giant plant response rating (0 to 100 scale) ([16]; 500 g ai/ha): 90; Ryegrass, Italian plant response rating (0 to 100 scale) ([17]; 125 g ai/ha): 0; Ryegrass, Italian plant response rating (0 to 100 scale) ([17]; 500 g ai/ha): 30; Pigweed plant response rating (0 to 100 scale) ([18]; 125 g ai/ha): 0; Pigweed plant response rating (0 to 100 scale) ([18]; 500 g ai/ha): 20
